# Laboratory results: article PMC11249646, “Small-Molecule Disruptors of the Interaction between Calcium- and Integrin-Binding Protein 1 and Integrin αIIbβ3 as Novel Antiplatelet Agents” (ACS Pharmacology & Translational Science, 2024)
# Biological target: T1, GST-CIB1 : F-scrambled peptide (Homo sapiens, UniProt Q99828)
# T1 construct: made in house; host or cells: BL-21 plus RIL cells (E. coli)
# T1 sequence (Q99828 1-191): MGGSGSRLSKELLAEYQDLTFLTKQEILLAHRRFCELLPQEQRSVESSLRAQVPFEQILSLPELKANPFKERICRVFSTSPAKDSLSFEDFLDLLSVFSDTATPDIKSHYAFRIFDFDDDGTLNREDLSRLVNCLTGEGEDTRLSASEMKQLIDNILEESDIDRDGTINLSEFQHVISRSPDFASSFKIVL
# Experiment: FP scrambled-peptide counter screen, 1536-well format
# Assay type: binding
# Settings: counterscreen
Efficacy (%) (counterscreen),Compound,COUNTERSCREEN Efficacy (%)
-34,O=C1C[C@@](c2ccc(N3CCOCC3)cc2)(c2ccsc2)NC(=O)C1Sc1ccccc1Cl (stereo partly shown) [NCGC00420796-01],–
-16,Nc1nc2c(s1)C(c1ccc(F)cc1F)CC(=O)N2 (stereo not shown) [NCGC00422010-03],–

# Second part, the molecule before the results:
Compound,Efficacy (%) (counterscreen),COUNTERSCREEN Efficacy (%)
Oc1ccc2c(-c3c(-c4ccccn4)nn4c3CCC4)ccnc2c1 [NCGC00408881-01],-32,–
CC(C)C(=O)OCc1ccc(-c2nn(Cc3ccccc3)c3ccccc23)o1 [NCGC00479272-01],-22,–
COc1cc2ccccc2cc1C(=O)N/C(S)=N/c1cc(C(=O)O)ccc1C.O=C(O)C(F)(F)F [NCGC00479324-01],–,12
COc1ccccc1C(=O)/C=C1/C(=O)Nc2ccc(C)cc21.O=C(O)C(F)(F)F [NCGC00481357-01],-51,–

# Same assay, conditions: counterscreen, YES/NO
row,Confirm? (counterscreen),Compound
1,YES,Nc1nc2c(s1)C(c1ccc(F)cc1F)CC(=O)N2 (stereo not shown) [NCGC00422010-03]
2,YES,CC(C)C(=O)OCc1ccc(-c2nn(Cc3ccccc3)c3ccccc23)o1 [NCGC00479272-01]

# Same assay, conditions: counterscreen, qHTS curve class
row,Compound,COUNTERSCREEN Curve Class
1,COc1cc2ccccc2cc1C(=O)N/C(S)=N/c1cc(C(=O)O)ccc1C.O=C(O)C(F)(F)F [NCGC00479324-01],4

# Same assay, conditions: counterscreen, qHTS curve class; negative sign = inhibitory curve
row,Curve Class (counterscreen),Compound
1,-1.4,O=C1C[C@@](c2ccc(N3CCOCC3)cc2)(c2ccsc2)NC(=O)C1Sc1ccccc1Cl (stereo partly shown) [NCGC00420796-01]
2,4,Nc1nc2c(s1)C(c1ccc(F)cc1F)CC(=O)N2 (stereo not shown) [NCGC00422010-03]

# The next lines start with the molecule.
row,Compound,Curve Class (counterscreen)
1,Oc1ccc2c(-c3c(-c4ccccn4)nn4c3CCC4)ccnc2c1 [NCGC00408881-01],-2.2
2,CC(C)C(=O)OCc1ccc(-c2nn(Cc3ccccc3)c3ccccc23)o1 [NCGC00479272-01],4
3,COc1ccccc1C(=O)/C=C1/C(=O)Nc2ccc(C)cc21.O=C(O)C(F)(F)F [NCGC00481357-01],-1.4

# Same assay, conditions: counterscreen; read-out: IC50 [μM] (counterscreen)
row,IC50 [µM],Compound
1,50.1,Oc1ccc2c(-c3c(-c4ccccn4)nn4c3CCC4)ccnc2c1 [NCGC00408881-01]
2,6.3,O=C1C[C@@](c2ccc(N3CCOCC3)cc2)(c2ccsc2)NC(=O)C1Sc1ccccc1Cl (stereo partly shown) [NCGC00420796-01]

row,Compound,IC50 [µM]
1,COc1ccccc1C(=O)/C=C1/C(=O)Nc2ccc(C)cc21.O=C(O)C(F)(F)F [NCGC00481357-01],6.3

# Biological target: T2, CIB1 and αIIb interaction (CIB1-GST : F-αIIb peptide) (Homo sapiens, UniProt Q99828)
# T2 construct: made in house; host or cells: BL-21 plus RIL cells (E. coli)
# T2 sequence (Q99828 1-191): T1 sequence (Q99828 1-191)
# Experiment: FP assay, 1536-well qHTS format (primary and confirmatory screen)
# Assay type: binding
# Settings: confirmatory screen
Efficacy (%) (confirmatory screen),Compound,CONFIRMATORY SCREEN Efficacy (%)
-47,O=C1C[C@@](c2ccc(N3CCOCC3)cc2)(c2ccsc2)NC(=O)C1Sc1ccccc1Cl (stereo partly shown) [NCGC00420796-01],–
-39,Nc1nc2c(s1)C(c1ccc(F)cc1F)CC(=O)N2 (stereo not shown) [NCGC00422010-03],–

# Further lines, the molecule ahead of its results:
Compound,Efficacy (%) (confirmatory screen),CONFIRMATORY SCREEN Efficacy (%)
Oc1ccc2c(-c3c(-c4ccccn4)nn4c3CCC4)ccnc2c1 [NCGC00408881-01],-42,–
CC(C)C(=O)OCc1ccc(-c2nn(Cc3ccccc3)c3ccccc23)o1 [NCGC00479272-01],-30,–
COc1cc2ccccc2cc1C(=O)N/C(S)=N/c1cc(C(=O)O)ccc1C.O=C(O)C(F)(F)F [NCGC00479324-01],–,-38
COc1ccccc1C(=O)/C=C1/C(=O)Nc2ccc(C)cc21.O=C(O)C(F)(F)F [NCGC00481357-01],-59,–

# Same assay, conditions: confirmatory screen, YES/NO
row,Confirm? (confirmatory screen),Compound
1,YES,O=C1C[C@@](c2ccc(N3CCOCC3)cc2)(c2ccsc2)NC(=O)C1Sc1ccccc1Cl (stereo partly shown) [NCGC00420796-01]
2,YES,Nc1nc2c(s1)C(c1ccc(F)cc1F)CC(=O)N2 (stereo not shown) [NCGC00422010-03]

# More lines, now with the values behind:
row,Compound,Confirm? (confirmatory screen)
1,Oc1ccc2c(-c3c(-c4ccccn4)nn4c3CCC4)ccnc2c1 [NCGC00408881-01],YES
2,CC(C)C(=O)OCc1ccc(-c2nn(Cc3ccccc3)c3ccccc23)o1 [NCGC00479272-01],YES
3,COc1ccccc1C(=O)/C=C1/C(=O)Nc2ccc(C)cc21.O=C(O)C(F)(F)F [NCGC00481357-01],YES

# Same assay, conditions: confirmatory screen, qHTS curve class
row,Compound,CONFIRMATORY SCREEN Curve Class
1,COc1cc2ccccc2cc1C(=O)N/C(S)=N/c1cc(C(=O)O)ccc1C.O=C(O)C(F)(F)F [NCGC00479324-01],4

# Same assay, conditions: confirmatory screen, qHTS curve class; negative sign = inhibitory curve
row,Curve Class (confirmatory screen),Compound
1,-2.2,O=C1C[C@@](c2ccc(N3CCOCC3)cc2)(c2ccsc2)NC(=O)C1Sc1ccccc1Cl (stereo partly shown) [NCGC00420796-01]
2,-2.4,Nc1nc2c(s1)C(c1ccc(F)cc1F)CC(=O)N2 (stereo not shown) [NCGC00422010-03]

# The remaining lines, values behind:
row,Compound,Curve Class (confirmatory screen)
1,Oc1ccc2c(-c3c(-c4ccccn4)nn4c3CCC4)ccnc2c1 [NCGC00408881-01],-2.2
2,CC(C)C(=O)OCc1ccc(-c2nn(Cc3ccccc3)c3ccccc23)o1 [NCGC00479272-01],-2.4
3,COc1ccccc1C(=O)/C=C1/C(=O)Nc2ccc(C)cc21.O=C(O)C(F)(F)F [NCGC00481357-01],-1.4

# Same assay, conditions: confirmatory screen; read-out: IC50 [μM] (confirmatory screen)
row,IC50 [µM],Compound
1,20,O=C1C[C@@](c2ccc(N3CCOCC3)cc2)(c2ccsc2)NC(=O)C1Sc1ccccc1Cl (stereo partly shown) [NCGC00420796-01]
2,89.1,Nc1nc2c(s1)C(c1ccc(F)cc1F)CC(=O)N2 (stereo not shown) [NCGC00422010-03]

# The next lines start with the molecule.
row,Compound,IC50 [µM]
1,Oc1ccc2c(-c3c(-c4ccccn4)nn4c3CCC4)ccnc2c1 [NCGC00408881-01],39.8
2,CC(C)C(=O)OCc1ccc(-c2nn(Cc3ccccc3)c3ccccc23)o1 [NCGC00479272-01],35.5
3,COc1ccccc1C(=O)/C=C1/C(=O)Nc2ccc(C)cc21.O=C(O)C(F)(F)F [NCGC00481357-01],5.6

# Same assay, conditions: qHTS FP screen hits, Table S2; negative = inhibition
row,Efficacy (%),Compound
1,-36,Oc1ccc2c(-c3c(-c4ccccn4)nn4c3CCC4)ccnc2c1 [NCGC00408881-01]
2,-54,Nc1nc2c(s1)C(c1ccc(F)cc1F)CC(=O)N2 (stereo not shown) [NCGC00422010-03]
3,-25,CC(C)C(=O)OCc1ccc(-c2nn(Cc3ccccc3)c3ccccc23)o1 [NCGC00479272-01]

row,Compound,Efficacy (%)
1,COc1cc2ccccc2cc1C(=O)N/C(S)=N/c1cc(C(=O)O)ccc1C.O=C(O)C(F)(F)F [NCGC00479324-01],-25

# Same assay, conditions: qHTS FP screen hits, Table S2; one class per curve where COUNT > 1; negative sign = inhibitory curve
row,Curve Class,Compound
1,-1.2,Oc1ccc2c(-c3c(-c4ccccn4)nn4c3CCC4)ccnc2c1 [NCGC00408881-01]
2,-2.2,Nc1nc2c(s1)C(c1ccc(F)cc1F)CC(=O)N2 (stereo not shown) [NCGC00422010-03]

# Same assay, conditions: qHTS FP screen hits, Table S2; read-out: IC50
row,IC50 [µM],Compound
1,28.2,Oc1ccc2c(-c3c(-c4ccccn4)nn4c3CCC4)ccnc2c1 [NCGC00408881-01]
2,79.4,Nc1nc2c(s1)C(c1ccc(F)cc1F)CC(=O)N2 (stereo not shown) [NCGC00422010-03]
3,25.1,CC(C)C(=O)OCc1ccc(-c2nn(Cc3ccccc3)c3ccccc23)o1 [NCGC00479272-01]

row,Compound,IC50 [µM]
1,COc1cc2ccccc2cc1C(=O)N/C(S)=N/c1cc(C(=O)O)ccc1C.O=C(O)C(F)(F)F [NCGC00479324-01],12.6

# Same assay, conditions: qHTS primary screen hits, Table S2; negative = inhibition
row,Compound,Efficacy (%)
1,COc1ccccc1C(=O)/C=C1/C(=O)Nc2ccc(C)cc21.O=C(O)C(F)(F)F [NCGC00481357-01],-43

# Same assay, conditions: qHTS primary screen hits, Table S2; negative sign = inhibitory curve; several classes where COUNT > 1
row,Compound,Curve Class
1,COc1ccccc1C(=O)/C=C1/C(=O)Nc2ccc(C)cc21.O=C(O)C(F)(F)F [NCGC00481357-01],-1.2

# Same assay, conditions: qHTS primary screen hits, Table S2; read-out: IC50
row,Compound,IC50 [µM]
1,COc1ccccc1C(=O)/C=C1/C(=O)Nc2ccc(C)cc21.O=C(O)C(F)(F)F [NCGC00481357-01],14.1
